We go through one compound from ChEMBL document CHEMBL1132898, “COBRA-1, a rationally-designed epoxy-THF containing compound with potent tubulin depolymerizing activity as a novel anticancer agent” (2000).

In experiment [1] the test system is PC-3. As to the kind of experiment: Compound (100 uM) was tested for its ability to kill clonogenic PC-3 cells at 100 uM. The format is functional, Homo sapiens.
For experiment [2], the system named is U373 MG. In words: Concentration of compound that increased the level of c-jun mRNA expression in U373 glioblastoma cells. The format is functional, cell-based. The settings on record: Homo sapiens; U-373MG ATCC.
Experiment [3] relates to NALM-6. As to the kind of experiment: Compound (10 uM) was tested for its ability to kill clonogenic NALM-6 cells. It is filed as functional, Homo sapiens.
Experiment [4] relates to NALM-6. In words: Compound (100 uM) was tested for its ability to kill clonogenic NALM-6 leukemia cells at 100 uM. It is filed as functional, Homo sapiens.
In experiment [5] the test system is PC-3. As to the kind of experiment: Compound (10 uM) was tested for its ability to kill clonogenic PC-3 cells. It is filed as functional, Homo sapiens.
For experiment [6], the system named is NALM-6. As to the kind of experiment: Cytotoxic activity (<10 uM) against clonogenic NALM-6 leukemia using standard in vitro clonogenic assay; No effect. The format is functional, cell-based. The conditions noted are these: Homo sapiens.
A further experiment is filed under the species Homo sapiens. As to the kind of experiment: Concentration for inhibition of proliferation of BT-20 by impairing the mitotic spindle assembly; Range 1-10 uM. It is filed as functional.
For experiment [7], the target named is Tubulin alpha chain (Sus scrofa) (UniProt P02550). As to the kind of experiment: Compound was tested for tubulin polymerization in presence of GTP by using cell free tubulin turbidity assay; Active. It is filed as functional.
Another experiment concerns BT-20. In words: Concentration of compound that increased the level of c-jun mRNA expression in BT-20 breast cancer cells. It is filed as functional, cell-based. The conditions noted are these: Homo sapiens.
The subject of experiment [8] is PC-3. As to the kind of experiment: Cytotoxic activity (<10 uM) against PC-3 prostate cancer cells using standard in vitro clonogenic assay; No effect. The format is functional, cell-based. The settings on record: Homo sapiens.
In experiment [9] the test system is U373 MG. As to the kind of experiment: Concentration for inhibition of proliferation of U373 by impairing the mitotic spindle assembly at a concentration; Range 1-10 uM. The format is functional, cell-based. The settings on record: Homo sapiens; U-373MG ATCC.

Activity calls are given as the source filed them. The calls are words filed in the database; no cut-off is given here. Where only a bound is given, the exact number is not on record here.

Sequence of Tubulin alpha chain (Sus scrofa) (P02550 whole entry, looked up): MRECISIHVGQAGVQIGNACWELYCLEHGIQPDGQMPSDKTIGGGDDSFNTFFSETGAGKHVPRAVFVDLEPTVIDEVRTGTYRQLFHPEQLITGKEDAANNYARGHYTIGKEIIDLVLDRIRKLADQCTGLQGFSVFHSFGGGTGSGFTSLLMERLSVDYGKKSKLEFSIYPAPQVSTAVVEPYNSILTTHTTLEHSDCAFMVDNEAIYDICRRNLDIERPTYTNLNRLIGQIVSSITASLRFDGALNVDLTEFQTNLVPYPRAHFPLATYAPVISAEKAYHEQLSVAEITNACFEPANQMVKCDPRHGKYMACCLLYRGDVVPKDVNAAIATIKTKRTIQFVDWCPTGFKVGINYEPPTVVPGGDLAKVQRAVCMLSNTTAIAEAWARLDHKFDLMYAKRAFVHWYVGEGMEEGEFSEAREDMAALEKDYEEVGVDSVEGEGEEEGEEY

Take `C=CCC[C@H](O)[C@H]1CC[C@H]([C@H](O)CCCCCCCCCCCC)O1`: the Cell kill with PC-3 [1] is more than 99.9%; in the experiment on NALM-6 [3], 99%; in the experiment on NALM-6 [4], more than 99.9%; with PC-3 [5], 91%. Also, the Concentration in the experiment on U373 MG [2] came out at 250 µM; in the experiment listed under Homo sapiens, 10 µM; with BT-20, 250 µM; with U373 MG [9] it was 10 µM. For the same compound, the Concentration result in the experiment on NALM-6 [6] and in the experiment with PC-3 [8] was “inactive” in each case. For the same compound, the inhibition result in [7] is “Active”.
